Peptide text beside a SMILES is read from it. * marks the point of attachment. Cbz = O=C(OCc1ccccc1)*; CH2F = FC*
Key:
HeLa nuclei = assay: Pulse field gel electrophoresis of DNA from AIF-treated HeLa nuclei; type: biochemical; conditions: 90 min with 100 ng AIF; 200 μM p-chloromercuryphenylsulfonic acid, 200 μM Z-VAD.fmk, 5 mM EDTA
Description: In addition, each nuclear preparation was assessed for the frequency of hypoploid nuclei as in A.
(§1) 2B4.11 T cell hybridoma cells stably transfected with a SFFV.neo vector containing the human bcl-2 gene or the neomycin resistance gene (Neo) only [Susin et al., J. Exp. Med. 184:1331-1342 (1996)] were subjected to mechanical lysis and differential centrifugation for the subsequent recovery of nuclei, mitochondria, and organelle-free cytosols [Liu et al. Cell 86:147-157 (1996)]. Submitochondrial fractionation of mouse liver mitochondria was controlled by the determination of suitable marker enzymes [Susin et al., J. Exp. Med. 186:25-37 (1997); Pedersen et al., Meth. Cell Biol. 20:411-481 (1978)]. Purified HeLa cell nuclei were exposed to different preparations of AIF, and nuclear apoptosis was quantitated by staining with DNA-intercalating propidium iodide and cytofluorometric determination of DNA content [Susin et al., J. Exp. Med. 186:25-37 (1997)]. Alternatively, nuclei were stained with Hoechst 33342 dye or subjected to DNA extraction and pulse field gel electrophoresis. […] The release of cytochrome c and caspase-9 into the supernatant was measured by immunoblot using a monoclonal anti-cytochrome c antibody (7H8.2C12, Pharmingen), or a rabbit antibody directed against the large subunit of caspase-9 (Hazelton Research Products Inc., Denver, Pa.).

caspase = assay: Cleavage of caspase substrate by mitochondrial supernatants; type: biochemical
Description: The same mitochondrial supernatants as in FIG. 3F were tested for their capacity to cleave the caspase substrate Z-VAD.afc, leading to the generation of the fluorochrome afc. The 100% value refers to the enzymatic activity obtained by osmotic lysis of mitochondria

isolated mitochondria = assay: Release of cytochrome c and caspase-9 from isolated mitochondria (immunoblot of supernatants); type: biochemical, rat; conditions: rec. AIF+cytosol+Z-VAD.fmk
Description: Isolated mitochondria were subjected to osmotic lysis (1) or treated as in A (15 min) with buffer only (2), rec. AIF (3), cytosol (4), rec. AIF+cytosol (5), or rec. AIF+cytosol+Z-VAD.fmk (6) and their supernatants were subjected to immunoblot analysis of cytochrome c and caspase-9.
as §1, with “Cell Biol. 20:411-481 (1978)].” left out, “(1997)].” for “(1997)]. Alternatively, nuclei were stained with Hoechst 33342 dye or subjected to DNA extraction and pulse field gel electrophoresis.”

Rat-1 cells [1] = assay: Microinjection into the cytoplasm of Rat-1 cells, quantitation of apoptosis; type: cell-based; conditions: 100 μM Z-VAD.fmk
Description: FIGS. 4A-4D show the effects of AIF on intact cells. […] Buffer only or recombinant AIF (10 μM) were injected into the cytoplasm of Rat-1 cells, which were cultured for 90 min in the absence or presence of 100 μM Z-VAD.fmk (added 15 min before injection). Microinjected cells could be identified because the injectate contained FITC-dextran (green fluorescence not shown). Representative (three independent experiments, 100-200 microinjected cells per session) microphotographs of viable cells stained with the DYm-sensitive dye CMXRos and Hoechst 33342 (as in FIG. 2E., upper panels) or Annexin-V, which labels surface-exposed phosphatidylserine residues (red fluorescence in lower panels).
(§2) Rat-1 fibroblast cells were microinjected (pressure 150 hPa; 0.2 sec; Marzo et al., Science 281:2027-2031 (1998)) with buffer only, atractyloside (50 μM), dialyzed antisera, AIF-derived peptides (100 μM), horse cytochrome c (Sigma), or the indicated dose of recombinant mAIF. The caspase inhibitor Z-VAD.fmk (100 μM; Bachem, Basel Switzerland) was added to the culture medium 30 min before microinjection into the cytoplasm (pressure 150 hPa; 0.2 sec). […] Microinjected viable cells (100-200 per session, two to three independent sessions of injection) were identified by inclusion of 0.25% (w:v) FITC-dextran (green fluorescence) in the injectate. Only the blue or red fluorescence was recorded. […]

[2] = test system: purified rat liver mitochondria; assay: Large amplitude swelling of purified mitochondria; type: biochemical; conditions: Z-VAD.fmk 100-200 μM
Description: Purified rat liver mitochondria were monitored continuously for large amplitude swelling. Arrows indicate the addition of Ca^2+(200 μM; positive control), AIF (100 ng/ml), cytosol (100 μg protein per ml), and/or Z-VAD.fmk (100 μM, pre-added to the cytosol/AIF mixture). Note that only the combined addition of AIF plus cytosol (right panel) causes mitochondrial swelling.
as §1, with “Submitochondrial fractionation of mouse liver mitochondria was controlled by the determination of suitable marker enzymes [Susin et al., J. Exp. Med. 186:25-37 (1997); Pedersen et al., Meth. Cell Biol. 20:411-481 (1978)].” left out, “(1997)].” for “(1997)]. Alternatively, nuclei were stained with Hoechst 33342 dye or subjected to DNA extraction and pulse field gel electrophoresis.”

mouse liver mitochondria = assay: AIF liberation from mitochondria by PT pore opening (Western blot of supernatants); type: biochemical; conditions: 5 mM atractyloside, 200 μM Ca2+
Description: FIGS. 2A-2F show the submitochondrial and subcellular distribution of AIF in normal and apoptotic cells. […] Western blots were performed on total mouse liver mitochondrion lysate (1), proteins from the matrix (2), inner membrane (3), intermembrane space (4), outer membrane (5), the supernatant of untreated mitochondria (6), or that of mitochondria treated with 5 mM atractyloside (7), 200 μM Ca^2+ (8), 1 μM cyclosporin A (9), atractyloside+CsA (10), or Ca^2++cyclosporin A (11). In addition, the supernatant of atractyloside-treated mitochondria was sham-immunodepleted using a pre-immune serum (12), or AIF-immunodepleted in the absence (13) or presence (14) of AIF-derived immunogenic peptides (see Example 2, below) capable of blocking the AIF antiserum. Aliquots of each preparation were tested for their capacity to induce nuclear hypoploidy in isolated HeLa nuclei.

Rat-1 cells [3] = assay: Microinjection of anti-AIF antiserum into Rat-1 cells treated with atractyloside or staurosporin; type: cell-based; conditions: for retention of DYm-sensitive dye CMXRos by cells: atractyloside 50 μM injected, staurosporin 1 μM, 120 min
Description: Rat-1 cells were microinjected with atractyloside (ATR, 50 μM) alone, or atractyloside diluted in control serum, anti-AIF antiserum, and/or 100 μM AIF-derived immunogenic peptides. 180 min after microinjection, cells were stained with Hoechst 33342 and CMXRos (as in FIG. 4A, upper panel). Alternatively, cells were cultured for 120 min with staurosporin (1 μM, as in FIGS. 2C-2E), added to the culture medium after microinjection of control antiserum or anti-AIF.
Rat-1 fibroblast cells were microinjected (pressure 150 hPa; 0.2 sec; Marzo et al., Science 281:2027-2031 (1998)) with buffer only, atractyloside (50 μM), dialyzed antisera, AIF-derived peptides (100 μM), horse cytochrome c (Sigma), or the indicated dose of recombinant mAIF. The caspase inhibitor Z-VAD.fmk (100 μM; Bachem, Basel Switzerland) was added to the culture medium 30 min before microinjection into the cytoplasm (pressure 150 hPa; 0.2 sec). […] Microinjected viable cells (100-200 per session, two to three independent sessions of injection) were identified by inclusion of 0.25% (w:v) FITC-dextran (green fluorescence) in the injectate. Only the blue or red fluorescence was recorded. Transfection of Jurkat T lymphoma cells was performed using AIF cloned in pcDNA3.1 (Invitrogen) vector and Lipofectamine® (Gibco Life Technologies). Cytofluorometric analyses of apoptosis-associated parameters were performed as described [Kroemer et al., “Detection of apoptosis and apoptosis associated alterations,” “The Immunology Methods Manual” (Lefkovitz, R. Ed.); Academic Press, Chapter 14.2., pp. 1111-1125 (1997)].

Rat-1 fibroblasts = assay: Nuclear phenotype of staurosporine-treated Rat-1 fibroblasts; type: cell-based; conditions: Neo cells; staurosporine 1 μM, 2 h
From the text: In Neo cells, staurosporine treatment leads to the generation of two phenotypes, one with partial chromatin condensation (˜80% of cells, stage I), and another with more advanced chromatin condensation and nuclear fragmentation (˜20% of cells, stage II), as identified by phase contrast microscopy or counter-staining with Hoechst 33342 (not shown). Arrow heads are placed in the center of the nucleus.
Specifically, Rabbit antiserum was generated against a mixture of 3 peptides derived from the mAIF amino acid sequence (amino acid nos. 151-170, 166-185, 181-200, coupled to KLH). This antiserum (ELISA titer ˜10.000) was used in immunoblots (1/2000) and on paraformaldehyde/picrylic acid-fixed [Bossy-Wetzel et al., EMBO J. 17:37-49 (1998)] […] Cytochrome c was detected by immunofluorescence (mAb 6H2.B4 from Pharmingen) in fixed Rat-1 cells transfected with a control vector (Neo) or with human Bcl-2 [Zhu et al., EMBO J. 15:4130-4141 (1996)] as described [Bossy-Wetzel et al., EMBO J. 17, 37-49 (1998)], whereas the DYm sensitive dye CMXRos (100 nM, red fluorescence) was used on live cells [Marzo et al., Science 281, 2027-2031 (1998)]. Cells were counterstained with the Hoechst 33342 dye (1 μM, blue fluorescence). […]

Jurkat cells = assay: Transfection-enforced AIF overexpression in Jurkat cells; type: cell-based; conditions: 24 hours after transfection
Description: Jurkat cells were transiently transfected with pcDNA3.1 vector only (control) or mouse AIF cDNA (under the control of a cytomegalovirus promoter, see pcDNA3.1 vector from Invitrogen). After 24 hours of culture, cells were stained with the indicated fluorochromes to determine the frequency of apoptosis-associated alterations: loss of DYm (fluorochrome: DiOC(6)3), phosphatidylserine exposure (fluorochrome: Annexin V-FITC), or loss of nuclear DNA (fluorochrome: propidium iodide, PI, after ethanol permeabilization). Numbers refer to the percentage of cells bearing apoptotic characteristics. Results are representative of 3 different experiments.
as §2

## O=C(O)CN(CCN(CC(=O)O)CC(=O)O)CC(=O)O [EDTA]
HeLa nuclei
  inhibition of AIF-induced large-scale DNA fragmentation: inhibited

## COC(=O)C[C@H](NC(=O)[C@H](C)NC(=O)[C@@H](NC(=O)OCc1ccccc1)C(C)C)C(=O)CF [Z-VAD.fmk] (Cbz-Val-Ala-Asp(OMe)-CH2F)
caspase
  inhibition of caspase-substrate-cleaving activity in supernatant of mitochondria treated with AIF plus cytosol: Z-VAD.fmk-inhibitable
Isolated mitochondria
  inhibition of AIF-induced release of caspase-9: does not inhibit the release of caspase-9 but rather interferes with its proteolytic activation
Rat-1 cells [1]
  inhibition of effects mediated by microinjected AIF: None of the effects mediated by microinjected AIF is inhibited
Rat-1 cells [1]; microinjected cytochrome c
  prevention of cytochrome c-induced apoptosis: succeeds in preventing cytochrome c-induced, caspase-dependent apoptosis
[2]
  prevention of AIF effects on isolated nuclei or on mitochondria: None of these AIF effects, either on isolated nuclei or on mitochondria, is prevented

## C=C1[C@@H]2CC[C@H]3[C@]4(C)C[C@H](O[C@@H]5O[C@H](CO)[C@@H](OS(=O)(=O)O)[C@H](OS(=O)(=O)O)[C@H]5OC(=O)CC(C)C)C[C@@H](C(=O)O)[C@H]4CC[C@]3(C2)[C@H]1O [atractyloside]
Mouse liver mitochondria
  release of 57 kDa AIF protein from mitochondria: released upon PT pore opening
Rat-1 cells [3]
  retention of DYm-sensitive dye CMXRos by cells: do not retain the DYm-sensitive dye CMXRos

## [Ca+2] [calcium]
Mouse liver mitochondria
  release of 57 kDa AIF protein from mitochondria: released upon PT pore opening

## O=S(=O)(O)c1cc[c]([Hg][Cl])cc1 [p-chloromercuryphenylsulfonic acid]
HeLa nuclei
  inhibition of AIF-induced large-scale DNA fragmentation: inhibited

## CN[C@@H]1C[C@H]2O[C@@](C)([C@@H]1OC)n1c3ccccc3c3c4c(c5c6ccccc6n2c5c31)C(=O)NC4 [staurosporine]
Rat-1 fibroblasts
  cells with more advanced chromatin condensation and nuclear fragmentation (stage II): ~20 % of cells
  cells with partial chromatin condensation (stage I): ~80 % of cells
Rat-1 cells [3]
  retention of DYm-sensitive dye CMXRos by cells: do not retain the DYm-sensitive dye CMXRos

## CC(C)(C)OO [tert-butylhydroperoxide]
Mouse liver mitochondria
  release of 57 kDa AIF protein from mitochondria: released upon PT pore opening

## immunogenic peptides: 3 peptides derived from the mAIF amino acid sequence (amino acid nos. 151-170, 166-185, 181-200) (peptide 1 LLIGGGTAAFAAARSIRARD; peptide 2 IRARDPGARVLIVSEDPELP; peptide 3 DPELPYMRPPLSKELWFSDD)
Rat-1 cells [3]; 100 μM AIF-derived immunogenic peptides
  inhibitory effect of AIF-specific antibody when co-injected with excess immunogenic peptides: No such inhibitory effect is observed

B1: wild type AIF: AIF overexpressed in Jurkat cells by transient transfection of mouse AIF cDNA in pcDNA3.1 (protein, UniProt Q9Z0X1 1-612, looked up)
chain: MFRCGGLAGAFKQKLVPLVRTVYVQRPKQRNRLPGNLFQQWRVPLELQMARQMASSGSSGGKMDNSVLVLIVGLSTIGAGAYAYKTIKEDQKRYNERVMGLGLSPEEKQRRAIASATEGGSVPQIRAPSHVPFLLIGGGTAAFAAARSIRARDPGARVLIVSEDPELPYMRPPLSKELWFSDDPNVTKTLQFRQWNGKERSIYFQPPSFYVSAQDLPNIENGGVAVLTGKKVVHLDVRGNMVKLNDGSQITFEKCLIATGGTPRSLSAIDRAGAEVKSRTTLFRKIGDFRALEKISREVKSITVIGGGFLGSELACALGRKSQASGIEVIQLFPEKGNMGKILPQYLSNWTMEKVKREGVKVMPNAIVQSVGVSGGRLLIKLKDGRKVETDHIVTAVGLEPNVELAKTGGLEIDSDFGGFRVNAELQARSNIWVAGDAACFYDIKLGRRRVEHHDHAVVSGRLAGENMTGAAKPYWHQSMFWSDLGPDVGYEAIGLVDSSLPTVGVFAKATAQDNPKSATEQSGTGIRSESETESEASEITIPPSAPAVPQVPVEGEDYGKGVIFYLRDKVVVGIVLWNVFNRMPIARKIIKDGEQHEDLNEVAKLFNIHED
modifications: full-length
Jurkat cells
  apoptosis-associated alterations after AIF overexpression: induces DYm collapse, phosphatidylserine exposure, and hypoploidy

From patent US7371834B2, “Apoptosis-inducing factor” (Amgen Inc., priority 1998, dated 2008)
